Data from patent US20100119483A1, “PEPTIDE VIRAL ENTRY INHIBITORS” (Schering Corporation, priority 2004, published 2010).
Several values for one entry are separate records, joined by “and”; a condition that tells them apart may be missing. Equal entries are not always repeated.

System: HCV pseudoparticles
Assay: HCV pseudoparticle (HCVpp) entry assay in Huh7 hepatoma cells, luciferase readout
Format: cell-based, hepatitis C virus
Conditions: for viral entry as a percentage of the uninhibited control: HCV entry, duplicates; for % of control at ~30 uM: percentage of hepatitis C virus cellular entry at 30 μM peptide vs uninhibited control
Procedure: HCV pseudotype particle generation. Single cycle HCV pseudoparticles are composed of a replication-defective HIV genome and HCV envelope proteins. These pseudoparticles were made by transfecting 293T cells with 5 ug of each pNL43E-R-luc (Chen et al., J. Virol. 68(2):654-60 (1994)) and plasmid expressing HCV envelope proteins pCMV/E1-2 with profection transfection kit from Promega (Madison, Wis.). The medium was refreshed 12-24 hours after transfection and supernatant was collected 48 hours after transfection. The supernatant from a transfection of only pNL43E-R-luc was used each time as a control for non specific entry events.
Infection of hepatoma cell lines with HCV pseudotype particles and screen for inhibitory peptides. The hepatoma cells, Huh7, was seeded at 8000 cells in 90 ul medium in 96-well plate. In the case of the inhibitor screen, the inhibitor was incubated with cells for one hour at 37° C. and then 50 ul viral supernatant was added to the cells 24 hours after seeding. The viral stock was pre-tittered and diluted to yield approximately 10,000 to 20,000 RLU. The cells were incubated at 37° C. with 5% CO2 for additional 72 hours and were harvested for luciferase assay. Peptide stocks were prepared in 100% DMSO at 10 mg/ml and were first screened at 100 ug/ml and then a dose responsive curve was generated with 10 points 3-fold titration starting from 100 ug/ml.
The peptide of SEQ ID NO: 77 was first serial diluted by the factor of 3 in 100% DMSO from 100 ug/ml and then transferred to the assay plates at 100-fold dilution. The peptide was first incubated with cells and HCVpp (A) or HIVpp (B), respectively, for 30 minutes at […] in this experiment. Then, the medium containing the peptide was removed from the cells and virus with peptide was added to the cells. Cells were incubated for 72 hours and then were harvested for luciferase assay. Two separate trials were performed.
In addition, the peptide of SEQ ID NO: 77 was mutated at several positions and assayed in the HCV entry assay discussed above. […] The assays were performed essentially as described above.

[1] = 0.1 nM of peptide (printed for three rows), two values per peptide and row
[2] = 0.3 nM of peptide, two values per peptide
[3] = 1 nM of peptide, two values per peptide
[4] = 3 nM of peptide, two values per peptide
[5] = 10 nM of peptide, two values per peptide
[6] = 30 nM of peptide, two values per peptide
[7] = 100 nM of peptide, two values per peptide
[8] = 300 nM of peptide, two values per peptide
[9] = 10000 nM of peptide, two values per peptide
[10] = 30000 nM of peptide, two values per peptide

## LLFLLLVYEWKIA [retro]
0.1 nM of peptide (three lines)
  viral entry as a percentage of the uninhibited control: 90%
0.1 nM of peptide (three lines), 0.0001 µM
  viral entry as a percentage of the uninhibited control: 107%
0.3 nM of peptide, 0.0003 µM
  viral entry as a percentage of the uninhibited control: 88% and 98% and 86% and 95% and 91%
1 nM of peptide, 0.001 µM
  viral entry as a percentage of the uninhibited control: 94% and 86% and 97% and 81% and 51% and 88%
3 nM of peptide, 0.003 µM
  viral entry as a percentage of the uninhibited control: 62% and 99% and 121% and 76% and 77% and 66%
10 nM of peptide, 0.01 µM
  viral entry as a percentage of the uninhibited control: 52% and 95% and 93% and 81% and 68% and 77%
100 nM of peptide, 0.1 µM
  viral entry as a percentage of the uninhibited control: 72% and 101% and 79% and 99% and 65% and 62%
30000 nM of peptide, 30 µM
  viral entry as a percentage of the uninhibited control: 104% and 110% and 73% and 90% and 96% and 80%
HCVpp entry inhibition, in words
  activity compared to the wild type 13-mer peptide: completely lost activity

## A-I-K-W-E-Y-V-L-K-L-F-L-L (AIKWEYVLKLFLL; HCV peptide) [SEQ ID NO: 133]
[1]
  % control (HCVpp entry), lysine scanning: 78 % control and 85 % control and 96 % control and 101 % control and 87 % control and 116 % control
[2]
  % control (HCVpp entry), lysine scanning: 108 % control and 78 % control
[3]
  % control (HCVpp entry), lysine scanning: 96 % control and 82 % control
[4]
  % control (HCVpp entry), lysine scanning: 95 % control and 79 % control
[5]
  % control (HCVpp entry), lysine scanning: 77 % control and 113 % control
[6]
  % control (HCVpp entry), lysine scanning: 80 % control and 68 % control
[7]
  % control (HCVpp entry), lysine scanning: 75 % control and 60 % control
[8]
  % control (HCVpp entry), lysine scanning: 41 % control and 56 % control
[9]
  % control (HCVpp entry), lysine scanning: 24 % control and 39 % control

## I-K-W-E-Y-V-L-L-L-F-L-L [SEQ ID NO: 107]
Truncated peptides tested at 50 uM in 1% DMSO
  HCVpp % inh: 88%

## A-I-K-K-E-Y-V-L-L-L-F-L-L (AIKKEYVLLLFLL; HCV peptide) [SEQ ID NO: 128]
[1]
  % control (HCVpp entry), lysine scanning: 80 % control and 86 % control and 107 % control and 102 % control and 87 % control and 103 % control
[2]
  % control (HCVpp entry), lysine scanning: 64 % control and 88 % control
[3]
  % control (HCVpp entry), lysine scanning: 99 % control and 72 % control
[4]
  % control (HCVpp entry), lysine scanning: 84 % control and 81 % control
[5]
  % control (HCVpp entry), lysine scanning: 63 % control and 92 % control
[6]
  % control (HCVpp entry), lysine scanning: 59 % control and 55 % control
[7]
  % control (HCVpp entry), lysine scanning: 52 % control and 46 % control
[8]
  % control (HCVpp entry), lysine scanning: 22 % control and 28 % control
[9]
  % control (HCVpp entry), lysine scanning: 7 % control and 4 % control

## A-I-K-W-E-Y-V-L-L-L-K-L-L (AIKWEYVLLLKLL; HCV peptide) [SEQ ID NO: 135]
[2]
  % control (HCVpp entry), lysine scanning: 72 % control and 99 % control
[3]
  % control (HCVpp entry), lysine scanning: 76 % control and 84 % control
[4]
  % control (HCVpp entry), lysine scanning: 67 % control and 74 % control
[5]
  % control (HCVpp entry), lysine scanning: 79 % control and 104 % control
[6]
  % control (HCVpp entry), lysine scanning: 90 % control and 89 % control
[7]
  % control (HCVpp entry), lysine scanning: 75 % control and 107 % control
[8]
  % control (HCVpp entry), lysine scanning: 87 % control and 70 % control
[9]
  % control (HCVpp entry), lysine scanning: 57 % control and 43 % control
[10]
  % control (HCVpp entry), lysine scanning: 37 % control and 29 % control

## A-I-K-W-E-Y-V-L-P-L-F-L-L (AIKWEYVLPLFLL; HCV peptide) [SEQ ID NO: 123]
[1]
  % control (HCVpp entry), proline scanning: 78 % control and 81 % control and 104 % control and 86 % control and 117 % control and 94 % control
[2]
  % control (HCVpp entry), proline scanning: 80 % control and 91 % control
[3]
  % control (HCVpp entry), proline scanning: 108 % control and 77 % control
[4]
  % control (HCVpp entry), proline scanning: 92 % control and 78 % control
[5]
  % control (HCVpp entry), proline scanning: 78 % control and 76 % control
[6]
  % control (HCVpp entry), proline scanning: 74 % control and 75 % control
[7]
  % control (HCVpp entry), proline scanning: 72 % control and 61 % control
[8]
  % control (HCVpp entry), proline scanning: 41 % control and 44 % control
[9]
  % control (HCVpp entry), proline scanning: 61 % control and 51 % control
[10]
  % control (HCVpp entry), proline scanning: 31 % control and 49 % control

## A-G-K-W-E-Y-V-L-L-L-F-L-L (AGKWEYVLLLFLL; HCV peptide) [SEQ ID NO: 83, Gly-scan]
0.00003 uM of peptide, two values per peptide and row
  % control (HCVpp entry), glycine scanning: 98 % control and 80 % control and 128 % control and 94 % control
0.0001 uM of peptide, two values per peptide
  % control (HCVpp entry), glycine scanning: 75 % control and 94 % control
0.0003 uM of peptide, two values per peptide
  % control (HCVpp entry), glycine scanning: 94 % control and 83 % control
0.001 uM of peptide, two values per peptide
  % control (HCVpp entry), glycine scanning: 70 % control and 67 % control
0.003 uM of peptide, two values per peptide
  % control (HCVpp entry), glycine scanning: 51 % control and 66 % control
0.01 uM of peptide, two values per peptide
  % control (HCVpp entry), glycine scanning: 76 % control and 56 % control
0.03 uM of peptide, two values per peptide
  % control (HCVpp entry), glycine scanning: 43 % control and 62 % control
30 uM of peptide, two values per peptide
  % control (HCVpp entry), glycine scanning: 18 % control and 15 % control
  % of control at ~30 uM: 9%

## A-I-K-W-E-K-V-L-L-L-F-L-L (AIKWEKVLLLFLL; HCV peptide) [SEQ ID NO: 130]
[1]
  % control (HCVpp entry), lysine scanning: 122 % control and 84 % control and 106 % control and 96 % control and 105 % control and 93 % control
[2]
  % control (HCVpp entry), lysine scanning: 103 % control and 100 % control
[3]
  % control (HCVpp entry), lysine scanning: 114 % control and 89 % control
[4]
  % control (HCVpp entry), lysine scanning: 95 % control and 81 % control
[5]
  % control (HCVpp entry), lysine scanning: 90 % control and 102 % control
[6]
  % control (HCVpp entry), lysine scanning: 74 % control and 75 % control
[8]
  % control (HCVpp entry), lysine scanning: 33 % control and 19 % control

## A-I-K-W-E-Y-V-L-L-L-F-L-A [SEQ ID NO: 97]
[1]
  % control (HCVpp entry), alanine scanning: 80 % control and 101 % control and 105 % control and 102 % control and 95 % control and 97 % control
[2]
  % control (HCVpp entry), alanine scanning: 72 % control and 102 % control
[3]
  % control (HCVpp entry), alanine scanning: 76 % control and 92 % control
[4]
  % control (HCVpp entry), alanine scanning: 72 % control and 92 % control
[5]
  % control (HCVpp entry), alanine scanning: 79 % control and 69 % control
[6]
  % control (HCVpp entry), alanine scanning: 55 % control and 80 % control
[7]
  % control (HCVpp entry), alanine scanning: 46 % control and 51 % control
[8]
  % control (HCVpp entry), alanine scanning: 30 % control and 47 % control
[9]
  % control (HCVpp entry), alanine scanning: 19 % control and 37 % control
[10]
  % control (HCVpp entry), alanine scanning: 53 % control and 50 % control
  % of control at ~30 uM: 24%

## A-I-K-W-E-Y-V-K-L-L-F-L-L (AIKWEYVKLLFLL; HCV peptide) [SEQ ID NO: 132]
[1]
  % control (HCVpp entry), lysine scanning: 73 % control and 89 % control and 95 % control and 92 % control and 117 % control and 96 % control
[2]
  % control (HCVpp entry), lysine scanning: 100 % control and 71 % control
[3]
  % control (HCVpp entry), lysine scanning: 67 % control and 79 % control
[4]
  % control (HCVpp entry), lysine scanning: 78 % control and 75 % control
[5]
  % control (HCVpp entry), lysine scanning: 54 % control and 56 % control
[6]
  % control (HCVpp entry), lysine scanning: 71 % control and 89 % control
[7]
  % control (HCVpp entry), lysine scanning: 59 % control and 62 % control
[8]
  % control (HCVpp entry), lysine scanning: 46 % control and 44 % control
[9]
  % control (HCVpp entry), lysine scanning: 49 % control and 50 % control
[10]
  % control (HCVpp entry), lysine scanning: 42 % control and 41 % control

## A-I-K-W-A-Y-V-L-L-L-F-L-L (AIKWAYVLLLFLL; HCV peptide) [SEQ ID NO: 90, Ala-scan]
[1]
  % control (HCVpp entry), alanine scanning: 105 % control and 98 % control and 82 % control and 106 % control and 116 % control and 96 % control
[2]
  % control (HCVpp entry), alanine scanning: 73 % control and 94 % control
[3]
  % control (HCVpp entry), alanine scanning: 66 % control and 98 % control
[4]
  % control (HCVpp entry), alanine scanning: 106 % control and 81 % control
[5]
  % control (HCVpp entry), alanine scanning: 66 % control and 46 % control
[6]
  % control (HCVpp entry), alanine scanning: 69 % control and 63 % control
[7]
  % control (HCVpp entry), alanine scanning: 51 % control and 43 % control
[8]
  % control (HCVpp entry), alanine scanning: 55 % control
  % of control at ~30 uM: 13%
